Data as given in ChEMBL document CHEMBL1124889, “Alfred Burger award address. Bioactive alkaloids. 4. Results of recent investigations with colchicine and physostigmine” (J Med Chem, 1990).
pIC50: −log10 of the molar value.

Experiments:
Cholinesterase [1] = biological target: T1, Cholinesterase (Homo sapiens, UniProt P06276); assay: Inhibitory activity against Butyrylcholinesterase in plasma; format: cell-free
Cholinesterase [2] = biological target: T1, Cholinesterase; assay: Inhibitory activity against Butyrylcholinesterase in cortex; format: tissue-based
Acetylcholinesterase [3] = biological target: T2, Acetylcholinesterase (Homo sapiens, UniProt P22303); assay: Inhibitory activity against Acetylcholinesterase in cortex; format: tissue-based
T2 sequence (P22303 whole entry): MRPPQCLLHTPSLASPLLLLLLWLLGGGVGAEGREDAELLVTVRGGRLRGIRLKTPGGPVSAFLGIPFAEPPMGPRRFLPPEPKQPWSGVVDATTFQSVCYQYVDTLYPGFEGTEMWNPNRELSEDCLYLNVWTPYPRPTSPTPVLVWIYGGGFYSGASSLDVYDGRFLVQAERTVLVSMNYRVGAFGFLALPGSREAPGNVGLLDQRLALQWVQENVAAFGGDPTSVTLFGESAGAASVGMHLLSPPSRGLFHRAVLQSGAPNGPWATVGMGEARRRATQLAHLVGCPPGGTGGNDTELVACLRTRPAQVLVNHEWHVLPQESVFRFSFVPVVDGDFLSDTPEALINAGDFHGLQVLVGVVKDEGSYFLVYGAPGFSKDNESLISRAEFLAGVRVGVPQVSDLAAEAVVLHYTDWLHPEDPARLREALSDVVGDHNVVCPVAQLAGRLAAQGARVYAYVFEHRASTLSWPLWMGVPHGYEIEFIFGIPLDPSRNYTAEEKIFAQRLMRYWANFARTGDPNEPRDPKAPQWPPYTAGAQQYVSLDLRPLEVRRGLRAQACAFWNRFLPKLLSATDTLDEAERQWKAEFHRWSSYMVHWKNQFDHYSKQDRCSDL

Acetylcholinesterase [4] = biological target: Acetylcholinesterase (Electrophorus electricus, UniProt O42275); assay: Inhibitory activity against Acetylcholinesterase in electric eel
Sequence of Acetylcholinesterase (Electrophorus electricus, UniProt O42275) (O42275 whole entry): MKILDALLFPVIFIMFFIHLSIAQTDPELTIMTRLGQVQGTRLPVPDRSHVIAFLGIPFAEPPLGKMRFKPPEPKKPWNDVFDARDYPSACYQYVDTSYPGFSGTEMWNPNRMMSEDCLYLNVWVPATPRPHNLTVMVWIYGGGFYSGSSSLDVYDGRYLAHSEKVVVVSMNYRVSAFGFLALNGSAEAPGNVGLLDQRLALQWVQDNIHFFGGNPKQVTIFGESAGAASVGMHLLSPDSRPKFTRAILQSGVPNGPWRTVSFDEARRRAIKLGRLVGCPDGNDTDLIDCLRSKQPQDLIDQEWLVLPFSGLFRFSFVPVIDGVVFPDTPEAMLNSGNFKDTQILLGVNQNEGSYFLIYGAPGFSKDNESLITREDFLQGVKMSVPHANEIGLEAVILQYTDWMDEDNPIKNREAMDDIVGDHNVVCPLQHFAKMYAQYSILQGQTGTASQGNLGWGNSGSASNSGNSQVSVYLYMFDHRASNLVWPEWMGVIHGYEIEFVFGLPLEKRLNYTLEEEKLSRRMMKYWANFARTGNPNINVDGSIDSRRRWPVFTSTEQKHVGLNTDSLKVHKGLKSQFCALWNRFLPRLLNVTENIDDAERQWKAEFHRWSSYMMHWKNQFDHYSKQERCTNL

Acetylcholinesterase [5] = biological target: T2, Acetylcholinesterase; assay: Inhibitory activity against Acetylcholinesterase in erythrocyte

T1 sequence (P06276 whole entry): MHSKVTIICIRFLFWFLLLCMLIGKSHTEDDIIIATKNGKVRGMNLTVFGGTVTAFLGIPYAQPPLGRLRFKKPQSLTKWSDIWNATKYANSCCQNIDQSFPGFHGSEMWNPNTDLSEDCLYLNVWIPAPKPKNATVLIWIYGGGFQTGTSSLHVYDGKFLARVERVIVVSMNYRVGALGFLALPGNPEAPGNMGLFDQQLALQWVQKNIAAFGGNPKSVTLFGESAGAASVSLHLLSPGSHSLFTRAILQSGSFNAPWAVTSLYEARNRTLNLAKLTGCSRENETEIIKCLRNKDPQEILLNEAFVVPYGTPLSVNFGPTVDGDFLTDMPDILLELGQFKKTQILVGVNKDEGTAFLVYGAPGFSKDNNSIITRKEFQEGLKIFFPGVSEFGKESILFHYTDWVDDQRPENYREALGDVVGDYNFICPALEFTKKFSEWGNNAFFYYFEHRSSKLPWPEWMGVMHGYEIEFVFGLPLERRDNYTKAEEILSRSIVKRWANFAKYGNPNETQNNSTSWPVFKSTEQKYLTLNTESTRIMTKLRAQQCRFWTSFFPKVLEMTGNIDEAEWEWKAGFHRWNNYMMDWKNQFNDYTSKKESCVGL

SMILES	pIC50 (Cholinesterase [1])	pIC50 (Cholinesterase [2])	pIC50 (Acetylcholinesterase [3])	pIC50 (Acetylcholinesterase [4])	pIC50 (Acetylcholinesterase [5])
C=CCN1CC[C@@]2(C)c3cc(OC(=O)NC)ccc3N(C)[C@@H]12	8.52	7.80	–	–	–
CN(C)C(=O)Oc1ccc2c(c1)[C@]1(C)CCN(C)[C@@H]1N2C	6.38	5.52	6.51	6.01	6.68
CN1CC[C@@]2(C)c3cc(OC(=O)NC(C)(C)C)ccc3N(C)[C@@H]12	5.70	4.96	4.49	< 5.00	4.64
CCCCCCCCNC(=O)Oc1ccc2c(c1)[C@]1(C)CCN(C)[C@@H]1N2C	8.40	8.05	–	–	–
COc1ccc(NC(=O)Oc2ccc3c(c2)[C@]2(C)CCN(C)[C@@H]2N3C)cc1	7.15	6.64	–	5.77	–
CNC(=O)Oc1ccc2c(c1)[C@]1(C)CCN(CCc3ccccc3)[C@@H]1N2C	–	–	6.82	–	6.66
